Tests used:
[1] = test system: IMQ-induced psoriasis-like skin lesions in mice; test: Imiquimod-induced psoriasis in mice, topical treatment; format: in vivo, male C57 mice; settings: topical 5% solution
Method: The 8 to 10 week old male C57 mice (18-20 g) received a daily topical dose of commercially available Imiquimod (IMQ) cream (5%, Imiquad;) on the shaved back and the right ear for 5 consecutive days, translating in a daily dose of 3.125 mg of the active compound to establish a model of IMQ-induced psoriasis. To examine the efficacy of topical solution of compound of formula (Ia), mice were randomly divided into 3 groups: IMQ-induced model group (IMQ) and IMQ + 5% compound of formula (Ia) solution and control group. Treatment was started on day 1 after the topical application of IMQ and continued upto day 5. All animals were assessed for the severity of the psoriasis-like skin condition, using 3 elements of the Psoriasis Area Severity Index (PASI), to assign a score of 0-4 (0, none; 1, mild; 2, moderate; 3, severe; 4, very severe) for each of the parameters erythema, scaling and thickness. The cumulative score (erythema plus scaling plus thickness) served to indicate the severity of inflammation (scale 0-12). Ear thickness was measured every day using thickness meter.

[2] = test system: Mannan-induced psoriasis in mice; test: Mannan-induced psoriasis in mice, topical treatment; format: in vivo, male C57 mice; settings: topical 2.5% solution, day 5, FIG. 3
Method: The 8- to 10-week-old male C57 mice (18-20 g) received a single dose of mannan from Saccharomyces cerevisiae (20 mg/kg, intraperitoneal route, dissolved in saline). To examine the efficacy of topical solution of desidustat, mice were randomly divided into 3 groups: Normal control, mannan control- model group (MAN control), and mannan (MAN) + 2.5% compound of formula (Ia) solution. Normal control animals were given normal saline instead of mannan. Treatment was started on day 0 along with injection of mannan and continued up to day 5. Right ear thickness was measured every day using thickness meter.

HIF = settings: animal model of anemia; Jain et al., 2019; Joharapurkar et al., 2018; cited from earlier work
[3] = clinical trials; cited from earlier work

Compound: O=C(O)CNC(=O)c1c(O)c2ccccc2n(OCC2CC2)c1=O [compound of formula (Ia), Desidustat]
- reduction of back skinfold thickness compared to IMQ ([1]; FIG. 2B): 15.5 ± 4.0%
- PASI score decreased to, compared with IMQ-control ([1]; cumulative score, FIG. 1D): 41.9 ± 7.6%
- reduction of erythema score (second mention) compared with IMQ-control ([1]; day 1 to day 5, FIG. 1A-C): 63.6 ± 11.5%
- reduction of erythema score compared with IMQ-control ([1]; day 1 to day 5, FIG. 1A-C): 46.2 ± 7.7%
- reduction of skin thickness score compared with IMQ-control ([1]; day 1 to day 5, FIG. 1A-C): 26.3 ± 10.4%
- thickening of the ear reduced to, compared to IMQ-control ([1]; right ear, FIG. 2A): 30.8 ± 2.6%
- reduction of right ear thickness compared to MAN control group [2]: 15.8 ± 2.5%
- effect on HIF and erythropoiesis (HIF): stabilizes HIF and thus induces erythropoiesis
- effect on haemoglobin [3]: improves haemoglobin

From patent US20230241044A1, “TREATMENT FOR PSORIASIS AND SKIN INFLAMMATORY DISEASES” (ZYDUS LIFESCIENCES LIMITED, priority 2020, published 2023)
